Literature values as cited in patent US12440530B2, “Skin solution with solubilized bakuchiol” (Envy Medical, Inc., priority 2013, dated 2025).

Key:
facial acne vulgaris = conditions: in vivo

solubility in water | Structure (SMILES) | inflammatory (papules, cysts) and noninflammatory (blackheads) lesions (facial acne vulgaris) | study subjects with partial or total clearing of acne-related post inflammatory hyperpigmentation (PIH) (facial acne vulgaris)
very insoluble in water | C=C[C@@](C)(/C=C/c1ccc(O)cc1)CCC=C(C)C [Bakuchiol, bakuchiol] | significant reductions | Forty-five
very insoluble in water | CC(C)=CCC[C@](C)(O)C1CC=C(C)CC1 (stereo partly shown) [bisabolol] | – | –
